Test results taken from patent US20110009628A1, “Compounds and Compositions for Modulating Lipid Levels and Methods of Preparing Same” (priority 2009, published 2011).
Where a name gives a salt, the structure may show the parent alone.

How the values were obtained:
[1] = system: LDLR ligand uptake activity in HepG2 cells; test: DiI-LDL uptake in HepG2 cells (Example 6); assay type: cell-based, human; settings: 20 hours; note: key: +: slightly increased fluorescent intensity over control; ++: modestly increased fluorescent intensity over control; +++: strongly increased fluorescent intensity over control
Method: HepG2 cells (2×10^5 cells/well) in 24-well culture plates were treated with various compounds at indicated concentrations for 20 hours. The fluorescent 1.1′-dioctadecyl-3,3,3′,3′-tetramethylindocarbocyanin perchlorate (DiI-LDL) (Biomedical Technologies, Stoughton, Mass.) at a concentration of 2 μg/mL was added to cells at the end of treatment. After 4 hours, the medium was removed, cells were washed with cold PBS, and were examined immediately under a fluorescent microscope (Nikon) at 200× amplification. The fluorescent intensity in compound-treated cells was compared to that in untreated control cells. […] In these experiments berberine chloride was used for comparison.

[2] = system: intracellular triglyceride in HepG2 cells; test: Reduction of intracellular triglyceride in HepG2 cells (Example 8); assay type: cell-based, human
Source text: Berberine chloride was used for comparison. The amount of TG in untreated control cells was defined as 100% and the amounts of TG in compound-treated cells were divided to that value.

[3] = system: LDLR mRNA expression in HepG2 cells; test: LDLR mRNA expression in HepG2 cells, quantitative real-time RT-PCR (Example 7); assay type: cell-based, human; settings: dose less than or equal to 10 μM, 24 hours
Method in brief: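 LDLR mRNA quantified by TaqMan real-time PCR in triplicate, normalized to GAPDH and expressed relative to untreated cells set at 1 (mean±s.d.).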

[4] = system: LDLR mRNA expression in HepG2 cells; test: LDLR mRNA expression in HepG2 cells, semi-quantitative RT-PCR; assay type: cell-based, human; settings: 8 hours, FIG. 1
Method: HepG2 cells obtained from American Tissue Culture Collection (Manassas, Va., USA) were seeded in 6-well culture plates at a density of 0.8×10^6 cells/well cultured in EMEM containing 0.5% FBS and were treated with each purified compound at indicated doses for 8 hours. Total RNA was isolated, and 2 μg per sample was reverse transcribed with random primers using M-MLV (Promega) at 37° C. for 1 hour. PCR was carried out at 94° C. for 30 sec, 60° C. for 30 sec, and 72° C. for 30 sec with initial activation of the enzyme at 94° C. for 1 minute. Thirty cycles were performed for LDLR and GAPDH. PCR was performed using primers HLDLR-up and HLDLR-lo for LDLR and primers HGAPDH-up and HGAPDH-lo for GAPDH. The PCR products were separated on a 1% agarose gel and the band intensity was quantitated. LDLR mRNA levels were corrected by measuring GAPDH mRNA levels.

in vivo = test: in vivo; parameters: species or system Golden Syrian hamsters; settings: hamster, po
Method: For testing the efficacy of Compound 141 (phosphate salt of Compound 127) or its enantiomers (Compound 162/Compound 163) the following suspension formulation procedure was developed to make 100 ml of Compound 141 in suspension at 10 mg/ml concentration in 0.1 M tartaric buffer pH. 3 containing 0.5% hydroxypropylcellulose H-type (HPC-H):
Step 1: 1.50 g L-(+)-tartaric acid was dissolved in 100 mL water to prepare a tartaric acid solution. The solution was adjusted to pH 3 with 1.2 mL 5N NaOH solution to provide the tartaric acid buffer (100 mM). Step 2: 0.5 g HPC-H powder was added to 10 mL tartaric acid buffer (100 mM) at 50° C. The slurry was stirred for 30 minutes, and then diluted with 90 mL tartaric acid buffer (100 mM) at room temperature to provide 0.5% HPC-H. Agitation was continued until all particles were dissolved and the solution was completely free of gels. Step 3: 1.20 g Compound 141 (or Compound 162 or Compound 163) and 1.20 g mannitol were mixed and ground through a 120 mesh sieve, then the mixture was ground slightly again. The mixture was dispersed in 100 mL 0.5% HPC-H-L-(+)-Tartaric acid buffer (pH=3), then stirred until the drug dispersed evenly. The final pH was 2.6. All the above procedures were completed at room temperature (˜25° C.). The final concentration of Compound 141 was 10 mg/ml after correction of the salt weight.
The pharmacokinetic profile and bioavailability of Compound 141 (phosphate salt of Compound 127) in male Wistar rats following single intravenous (iv) and oral administration (p.o.) were measured according to the procedures of Example 4 and are summarized in Table 11. The pharmacokinetic profile of Compound 162 in male Golden Syrian masters following oral administration (pox) is summarized in Table 12.

[5] = system: LDLR protein expression in HepG2 cells; test: Western blot of LDLR protein in HepG2 cells, Compounds 162 and 163; assay type: cell-based, human; settings: 20 μM, 16 or 24 hours, FIG. 7
Method: (§1) FIG. 7 is a Western blot analysis of LDLR and PCSK9 expression in HepG2 cells. HepG2 cells seeded in 12-well culture plates were cultured in 0.5% FBS MEM overnight. Compounds 162 and 163 at 20 μM were added to cells for the indicated times. Untreated and treated cells were harvested at the same indicated time points. Total cell lysates were isolated and 50 μg per sample was analyzed for LDLR and PCSK9 protein abundance by western blotting. The membrane was reprobed with anti-actin antibody to examine the equal loading of cell lysates.
Chicken anti-LDLR was purchased from Abcam. HepG2 cells cultured in 60-mm dishes were incubated overnight in medium containing 0.5% fetal bovine serum prior to the addition of compounds at 20 μM concentration. After 16 or 24 hours of treatment, total cell lysate was isolated and 50 μg of protein was separated on SDS-PAGE and transferred to nitrocellulose membrane for immunoblotting with anti-LDLR.

[6] = system: LDLR mRNA expression in HepG2 cells; test: LDLR mRNA expression in HepG2 cells, Compounds 162 and 163, real-time RT-PCR (Example 13); assay type: cell-based, human; settings: FIGS. 6A and 6B
Method: In FIG. 6A HepG2 cells were exposed to Compounds 162 and 163 at the indicated concentrations (x-axis) for 24 h and plotted against normalized LDLR mRNA levels (fold of control in absence of compound). In FIG. 6B, HepG2 cells were treated with 20 μM of each compound for the indicted times (x-axis) and plotted against normalized LDLR mRNA levels (fold of control at 24 h).
The time- and dose-dependent effects of the enantiomers of Compound 127 (Compounds 162 and 163) on LDLR mRNA expression were examined using quantitative real-time RT-PCR assays (FIGS. 6A and 6B). HepG2 cells were treated with Compound 162 and Compound 163 at indicated concentrations for various times. Total RNA was isolated and […] was used to generate cDNA in a reaction containing random primers and M-MLV at 37° C. for 1 h in a volume of 25 μL. Real-time PCR was performed on the cDNA using MCEP REALPLEX 2 SYSTEM (Eppendorf) and Universal MasterMix (Applied Biosystems). Human LDLR and GAPDH Pre-Developed TaqMan Assay Reagents (Applied Biosystems) were used to assess the levels of mRNA expressions in HepG2. The levels of LDLR mRNA were normalized to that of GAPDH. Each RNA samples was assayed in triplicate. The fold activity was calculated by dividing mRNA abundance in compound treated cells with that of control.

[7] = system: PCSK9 protein expression in HepG2 cells; test: Western blot of PCSK9 protein in HepG2 cells, Compounds 162 and 163; assay type: cell-based, human; settings: 20 μM, time-dependent, FIG. 7
Method: as §1
Recent studies have identified the liver secreted serine protease PCSK9 (proprotein convertase subtilisin type 9) as a natural inhibitor of LDLR protein expression that degrades hepatic LDLR protein, thus increasing circulating LDL-C levels.

[8] = Stability of compound 69 under cell culture conditions, LC-MS of medium; assay type: in vitro ADME, human; settings: for Peak Area m/z 466.1: 20 μM in HepG2 culture medium
Method: HepG2 cells were cultured in 6-well cell culture plate in EMEM containing 0.5% FBS overnight. Compound 69+ was added to the culture medium to a final concentration of 20 μM. Medium was collected at 0 (control), 4, 8, or 24 hours after the compound addition.
The collected media were analyzed by LC-MS on a Thermo Fisher Scientific Surveyor HPLC system and LCQ ion trap MS with electrospray ionization source. A 50×2. 1 mm Hypersil Gold C18 3 um column was used with a flow rate of 200 uL/min. The method conditions were 98% A (0.1% formic acid in water)/2% B (0.1% formic acid in acetonitrile) then a gradient to 95% B in 10 minutes. The injection volume was 10 uL.

| Compound | Activity on DiI-LDL uptake ([1]; B, compound dose ≦40 μM) | Activity on reduction of cellular TG accumulation (% of control) ([2]; B, compound dose ≦40 μM) | Activity on LDLR mRNA expression (Fold of control) [3] | Activity on DiI-LDL uptake ([1]; A, compound dose ≦10 μM) | other results |
| --- | --- | --- | --- | --- | --- |
| COc1ccc2cc3[n+](cc2c1OC)CCc1cc2c(cc1-3)OCO2 [Berberine, reference compound] | + | 70.9 ± 5.4 % of control | 1.30 ± 0.11 Fold of control | – | – |
| COc1cc2c(cc1OC)[C@H]1Cc3ccc(OC)c(OC)c3CN1CC2 [14R-(+)-THP, 14R-tetrahydropalmatine, reference compound] | ++ | – | – | – | effects on LDLR mRNA expression [4]: potent and dose-dependent effects |
| COc1cc2c(cc1OC)C1Cc3cccc(OC)c3CN1CC2 (centres unmarked) [Compound 22, 2,3,9-trimethoxy-5,6,7,8,13,13a-hexahydroisoquinolino[3,2-a]isoquinoline] | – | 53.35 ± 12.68 % of control | – | – | – |
| COc1cc2c(cc1OC)C1Cc3ccc(OC)c(OS(=O)(=O)c4cccc(F)c4)c3CN1CC2 (single isomer, unassigned) [Compound 163, 2,3,10-Trimethoxy-5,6,7,8,13,13a-hexahydroisoquinolin[2,1-b]isoquinolin-9-yl 3-fluorobenzenesulfonate phosphate Salt (Enantiomer having negative optical rotation)] | – | – | – | – | pharmacokinetic properties and bioavailability, in words (in vivo): excellent pharmacokinetic properties and good bioavailability; LDLR mRNA and protein expression [5]: significantly enhance; LDLR mRNA expression [6]: upregulate LDLR mRNA expression; PCSK9 cellular levels [7]: greatly decreased |
| CCOC(=O)COc1c(OC)ccc2c1CN1CCc3cc4c(cc3C1C2)OCO4 (centres unmarked) [Compound 83, 2-[10-methoxy-5,8,13,13a-tetrahydro-6H-[1,3]dioxolo[4,5-g]isoquino[3,2-a]isoquinoline-9-yl]-acetic esate] | – | 63.0 ± 0.90 % of control | – | – | – |
| COc1cc2c(cc1OC)[C@H]1[C@@H](C)c3ccc(OC)c(OC)c3CN1CC2 [14R,13S-(+)-CRDL] | ++ | – | – | – | effects on LDLR mRNA expression [4]: potent and dose-dependent effects |
| COc1ccc2c(c1OCCO)CN1CCc3cc4c(cc3C1C2)OCO4 (centres unmarked) [Compound 82, 9-O-2-(1′-hydroxy-ethyl)-10-methoxy-5,8,13,13a-tetrahydro-6H-[1,3]dioxolo[4,5-g]isoquino[3,2-a]isoquinoline] | – | 53.2 ± 21.3 % of control | – | – | – |
| COc1ccc2c(c1OS(=O)(=O)c1ccccc1)CN1CCc3cc4c(cc3C1C2)OCO4 (centres unmarked) [Compound 69, 9-benzenesulfonyloxy-10-methoxy-5,8,13,13a-tetrahydro-6H-[1,3]dioxolo[4,5-g]isoquino[3,2-a]isoquinoline] | – | – | 2.21 ± 0.09 Fold of control | +++ | Activity on reduction of cellular TG accumulation (% of control) ([2]; A, compound dose ≦10 μM): 60.4 ± 7.34 % of control; Peak Area m/z 466.1 ([8]; 0 (control) hours): 2.38e8; Peak Area m/z 466.1 ([8]; 4 h): 9.67e7; Peak Area m/z 466.1 ([8]; 8 h): 9.22e7; Peak Area m/z 466.1 ([8]; 24 h): 7.03e7; stability under cell culture conditions ([8]; HepG2 culture medium, up to 24 hours): fairly stable under cell culture conditions |
| COc1ccc2c(c1OS(=O)(=O)c1ccccc1C)CN1CCc3cc4c(cc3C1C2)OCO4 (centres unmarked) [Compound 50, 10-methoxy-5,6,7,8,13,13a-hexahydro-2H-1,3-dioxolano[4,5-g]isoquinolino[3,2-a]isoquinolin-9-yl 2-methylbenzenesulfonate] | – | – | 4.74 ± 0.96 Fold of control | +++ | – |
| COc1ccc2c(c1OC(=O)Nc1ccc(OC(F)(F)F)cc1)CN1CCc3cc4c(cc3C1C2)OCO4 (centres unmarked) [Compound 44, (10-methoxy(5,6,7,8,13,13a-hexahydro-2H-1,3-dioxolano[4,5-g]isoquinolino[3,2-a]isoquinolin-9-yloxy))-N-[4-(trifluoromethoxy)phenyl] carboxamide] | – | – | 2.20 ± 0.06 Fold of control | ++ | – |
